# Experimental data taken from patent US20260048049A1, “METHODS FOR TREATING CANCER USING INHALED ANGIOGENESIS INHIBITOR” (Pulmatrix Operating Company, Inc., priority 2022, published 2026).
# Where two headings read alike, the source gives them in different places.
# Tests used:
# [1] = cited from earlier work
# [2] = UniDose POD in vitro dissolution of the impactor stage mass (ISM); assay type: physicochemical; settings: 500 ml PBS pH 7.4 + 2.0% SDS, 37° C.
# Text: The following in vitro dissolution model was used to understand the dissolution properties of itraconazole containing dry powder aerosols. The aerosol particles were collected at well-defined aerosol particle size distribution (APSD) cut-offs using the Next Generation Impactor (NGI) (Copley Scientific, UK), and then the dissolution behavior simulated using model lung fluid.
# A UniDose™ (Nanopharm, Newport, United Kingdom) aerosol dose collection system combined with a modified next generation impactor (NGI) was used to uniformly deposit the impactor stage mass (ISM), which is defined as the dose collected on and below stage 2 of a next generation impactor, onto a suitable filter for subsequent dissolution studies in a USP V—Paddle over disk (POD) apparatus.
# The aerosol dose was collected in the UniDose system. […] The UniDose collection system was used to uniformly deposit the whole impactor stage mass (i.e., below stage 2 of an NGI) onto a glass microfiber filter membrane, which can be seen as where the circles (representing particles or droplets) deposit. The filter was placed into a disk cassette and dissolution studies were undertaken using 500 ml PBS pH 7.4+2.0% SDS in a USP Apparatus II POD (Paddle Over Disk, USP V) at 37° C. For all studies, sink conditions were maintained within the vessel. […]
# [3] = system: Calu-3 cell line epithelial cell monolayers; assay: cNGI integrated dissolution and permeability study; assay type: in vitro ADME; settings: Calu-3 ALI monolayer, stage 4 of cNGI
# Text: This was done using the following equation: […]
structure (smiles),measurement,setting,value
"CCC(C)n1ncn(-c2ccc(N3CCN(c4ccc(OCC5COC(Cn6cncn6)(c6ccc(Cl)cc6Cl)O5)cc4)CC3)cc2)c1=O (stereo not shown) [Pure ITZ, itraconazole]",plasma protein binding,[1]; capsules,99.6%
same,plasma protein binding,[1]; oral solution,99.8%
same,half-life,[2],102 min
same,dissolution and permeability kinetics,[3],slower dissolution and permeability kinetics than the other formulations
